The record followed here is ChEMBL document CHEMBL5113514 (J Med Chem, 2022).

pKi: −log10 of the molar value. Activity calls are given as the source filed them. The calls are words filed in the database; no cut-off is given here.

Assay [1] relates to Mus musculus. Put plainly: Antiseizure activity against electrical stimulus induced seizure in ip dosed CD-1 mouse model assessed as reduction in hindlimb tonic extension pretreated for 1 hr by maximal electroshock seizure test. The assay is classed as functional, organism-based.
For assay [2], the target named is Synaptic vesicle glycoprotein 2A (Mus musculus, UniProt Q9JIS5). Kind of assay: Binding affinity to mouse SV2A in presence of levetiracetam by radioligand binding assay.
Sequence of Synaptic vesicle glycoprotein 2A (Q9JIS5 whole entry): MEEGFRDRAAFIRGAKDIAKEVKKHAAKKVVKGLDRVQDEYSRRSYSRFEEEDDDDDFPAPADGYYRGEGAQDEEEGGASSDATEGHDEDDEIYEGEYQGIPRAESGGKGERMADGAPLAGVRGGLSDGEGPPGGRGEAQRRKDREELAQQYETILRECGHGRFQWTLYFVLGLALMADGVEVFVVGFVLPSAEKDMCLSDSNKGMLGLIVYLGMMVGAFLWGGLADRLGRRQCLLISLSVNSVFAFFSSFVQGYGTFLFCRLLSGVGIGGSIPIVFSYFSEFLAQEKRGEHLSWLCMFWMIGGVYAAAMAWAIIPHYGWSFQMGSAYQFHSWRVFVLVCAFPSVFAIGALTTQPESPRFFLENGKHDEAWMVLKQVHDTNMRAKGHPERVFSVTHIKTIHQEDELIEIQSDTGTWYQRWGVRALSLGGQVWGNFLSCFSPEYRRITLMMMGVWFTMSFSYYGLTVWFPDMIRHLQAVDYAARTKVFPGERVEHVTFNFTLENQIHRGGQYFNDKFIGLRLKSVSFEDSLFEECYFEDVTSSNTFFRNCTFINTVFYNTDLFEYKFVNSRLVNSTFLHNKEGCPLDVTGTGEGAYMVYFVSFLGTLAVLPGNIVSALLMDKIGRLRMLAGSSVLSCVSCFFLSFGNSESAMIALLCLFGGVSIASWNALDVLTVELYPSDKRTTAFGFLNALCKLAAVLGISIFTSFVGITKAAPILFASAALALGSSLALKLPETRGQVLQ
The test system of assay [3] is Mus musculus. Kind of assay: Antiseizure activity against ScPTZ-induced seizure in ip dosed CD-1 mouse model assessed as clonic seizures pretreated for 1 hr and measured after 30 mins by subcutaneous pentylenetetrazole test. The assay is classed as functional, organism-based.
Assay [4] deals with Mus musculus. Kind of assay: Antiseizure activity against ScPTZ-induced seizure in ip dosed CD-1 mouse model assessed as clonic seizures pretreated for […] and measured after 30 mins by subcutaneous pentylenetetrazole test. The assay is classed as functional, organism-based.
In assay [5] the target is Voltage-dependent T-type calcium channel subunit alpha-1H (Homo sapiens) (UniProt O95180). Kind of assay: Binding affinity to human Cav3.2 at 100 uM by Qpatch electrophysiological assay. On the technique in general: The patch-clamp technique gives a direct electrical read-out from membranes.
Sequence of Voltage-dependent T-type calcium channel subunit alpha-1H (Homo sapiens) (O95180 whole entry): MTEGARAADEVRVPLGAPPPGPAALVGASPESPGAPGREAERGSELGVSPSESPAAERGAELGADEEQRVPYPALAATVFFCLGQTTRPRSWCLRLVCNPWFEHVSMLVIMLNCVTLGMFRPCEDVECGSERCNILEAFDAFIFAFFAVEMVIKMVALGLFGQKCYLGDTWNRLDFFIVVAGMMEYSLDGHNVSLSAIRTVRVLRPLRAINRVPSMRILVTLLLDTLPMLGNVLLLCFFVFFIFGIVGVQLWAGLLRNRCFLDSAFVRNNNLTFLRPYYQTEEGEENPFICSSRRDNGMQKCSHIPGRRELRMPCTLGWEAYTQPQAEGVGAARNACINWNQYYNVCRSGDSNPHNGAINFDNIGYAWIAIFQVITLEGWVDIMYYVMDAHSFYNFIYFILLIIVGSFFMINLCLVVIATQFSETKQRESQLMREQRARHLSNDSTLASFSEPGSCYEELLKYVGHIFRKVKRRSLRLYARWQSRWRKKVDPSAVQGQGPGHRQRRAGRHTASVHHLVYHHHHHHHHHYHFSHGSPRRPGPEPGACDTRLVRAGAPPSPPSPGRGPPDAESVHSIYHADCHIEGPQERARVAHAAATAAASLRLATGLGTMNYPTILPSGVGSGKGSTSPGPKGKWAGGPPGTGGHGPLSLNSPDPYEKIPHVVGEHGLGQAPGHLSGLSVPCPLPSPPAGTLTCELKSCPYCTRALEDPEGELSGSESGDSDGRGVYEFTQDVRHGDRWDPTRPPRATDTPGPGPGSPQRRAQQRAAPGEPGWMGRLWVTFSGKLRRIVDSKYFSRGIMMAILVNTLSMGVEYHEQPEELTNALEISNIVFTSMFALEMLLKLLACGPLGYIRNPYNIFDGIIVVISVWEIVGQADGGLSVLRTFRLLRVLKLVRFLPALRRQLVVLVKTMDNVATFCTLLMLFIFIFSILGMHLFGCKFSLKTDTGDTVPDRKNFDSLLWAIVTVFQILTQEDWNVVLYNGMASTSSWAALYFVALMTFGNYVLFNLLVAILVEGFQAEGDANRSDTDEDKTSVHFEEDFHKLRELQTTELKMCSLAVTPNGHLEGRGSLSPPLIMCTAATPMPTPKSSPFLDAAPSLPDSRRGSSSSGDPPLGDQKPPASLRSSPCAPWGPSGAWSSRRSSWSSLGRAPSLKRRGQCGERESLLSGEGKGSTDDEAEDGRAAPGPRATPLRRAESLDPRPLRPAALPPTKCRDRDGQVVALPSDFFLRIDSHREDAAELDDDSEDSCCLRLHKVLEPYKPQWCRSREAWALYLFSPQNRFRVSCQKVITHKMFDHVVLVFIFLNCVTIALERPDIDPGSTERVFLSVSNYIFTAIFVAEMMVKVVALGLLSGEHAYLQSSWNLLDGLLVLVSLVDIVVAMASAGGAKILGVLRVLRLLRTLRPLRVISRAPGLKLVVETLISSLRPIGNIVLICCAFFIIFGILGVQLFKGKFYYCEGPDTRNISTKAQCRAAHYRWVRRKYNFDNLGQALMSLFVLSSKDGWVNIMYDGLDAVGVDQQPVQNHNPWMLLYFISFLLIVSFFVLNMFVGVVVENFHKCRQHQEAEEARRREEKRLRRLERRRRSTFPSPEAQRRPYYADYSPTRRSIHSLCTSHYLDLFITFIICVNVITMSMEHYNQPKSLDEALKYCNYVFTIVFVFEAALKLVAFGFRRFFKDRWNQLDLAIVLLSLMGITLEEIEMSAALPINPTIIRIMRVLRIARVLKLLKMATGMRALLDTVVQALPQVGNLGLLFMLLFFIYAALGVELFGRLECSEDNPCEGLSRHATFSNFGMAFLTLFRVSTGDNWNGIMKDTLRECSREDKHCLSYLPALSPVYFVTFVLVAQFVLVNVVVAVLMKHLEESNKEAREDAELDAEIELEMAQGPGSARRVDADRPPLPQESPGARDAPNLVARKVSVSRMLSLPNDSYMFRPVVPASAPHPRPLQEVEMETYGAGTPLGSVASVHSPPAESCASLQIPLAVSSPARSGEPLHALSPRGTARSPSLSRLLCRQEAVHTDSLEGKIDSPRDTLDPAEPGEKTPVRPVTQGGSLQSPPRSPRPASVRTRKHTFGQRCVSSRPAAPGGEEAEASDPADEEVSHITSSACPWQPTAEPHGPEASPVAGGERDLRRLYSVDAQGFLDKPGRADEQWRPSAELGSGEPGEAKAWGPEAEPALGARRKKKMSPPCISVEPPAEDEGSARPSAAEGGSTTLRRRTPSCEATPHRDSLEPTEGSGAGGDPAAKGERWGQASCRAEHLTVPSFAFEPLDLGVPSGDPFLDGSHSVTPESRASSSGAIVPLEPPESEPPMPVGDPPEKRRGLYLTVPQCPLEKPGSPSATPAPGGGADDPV
In assay [6] the test system is Mus musculus. Kind of assay: Anti-seizure activity against electrical stimulus induced seizure in ip dosed CD-1 mouse model assessed as normal behavior within 10 seconds after stimulation at 6 Hz and 32 mA for 3 secs pretreated for […] by psychomotor seizure test. The assay is classed as functional, organism-based.
The species entered for assay [7] is Mus musculus. Kind of assay: animal or person. The settings on record: CD-1, 0.5 h.
Assay [8] relates to Mus musculus. Put plainly: Antiseizure activity against electrical stimulus induced seizure in ip dosed CD-1 mouse model assessed as normal behavior within 10 seconds after stimulation at 6 Hz and 32 mA for 3 secs pretreated for 0.5 hr by psychomotor seizure test. Type of assay: functional, organism-based.
The species named for the next assay is Homo sapiens. Put plainly: Binding affinity to TTX-sensitive sodium channel (unknown origin) at 100 uM.
In assay [9] the test system is Mus musculus. Put plainly: Antiseizure activity against ScPTZ-induced seizure in ip dosed CD-1 mouse model assessed as clonic seizures pretreated for 0.5 hrs and measured after 30 mins by subcutaneous pentylenetetrazole test. The assay is classed as functional, organism-based.

With `CC[C@@H](C(N)=O)N1CCCC1=O`, in the assay on Mus musculus [1], the EC50 was more than 500 mg/kg.
With `C[C@@H](C(=O)NCc1ccccc1)N1C(=O)CCC1=O`, in assay [2], the pKi is less than 3.60.
As for `C[C@H](C(=O)NCc1ccccc1)N1C(=O)CCC1=O`, the pKi in assay [2] is less than 3.60.
As for `C=C(C)[C@@H]1CCC(C)=C[C@H]1c1c(O)cc(CCCCC)cc1O` [CANNABIDIOL], the EC50 stood at 80 mg/kg with Mus musculus [1] and 120 mg/kg with Mus musculus [3].
As to `CCC1(C)CC(=O)NC1=O` (stereo not drawn) [ETHOSUXIMIDE], the results for the EC50 in the assay on Mus musculus [4] and in the assay on Mus musculus [6] were 140.4 mg/kg and more than 200 mg/kg, respectively. For the same molecule, the result in assay [5] was Active.
The molecule `COC[C@@H](NC(C)=O)C(=O)NCc1ccccc1` [LACOSAMIDE] registered an ED50 in the assay filed under Mus musculus [7] of 92 mg/kg. Besides, the EC50 in the assay with Mus musculus [8] was found to be 5.3 mg/kg. Further, in the assay listed under Homo sapiens, the outcome was Active.
As for `CCCC(CCC)C(=O)O` [VALPROIC ACID], the figures for the EC50 with Mus musculus [8] and with Mus musculus [9] were 130.6 mg/kg and 239.4 mg/kg, respectively.

Usually pKi stands for the Ki on a negative log10 scale, so that one unit is a factor of ten. Broadly, the ED50 is the dose at which the effect has come halfway, by size or by number of responders. A higher ED50 goes with weaker potency.
